Results on four molecules are retold here after PubChem BioAssay AID1259407 (Chemical Carcinogenesis Research Information System (CCRIS), 2018).

The data set has as its system CCRIS mutagenicity, Ames/micronucleus/aberration tests. Description: CCRIS mutagenicity studies.
[1] abbreviates: Test System: AMES SALMONELLA TYPHIMURIUM, Strain/Indicator: TA97, Metabolic Activation: NONE, Method: PREINCUBATION
Where [2] appears, read: Test System: AMES SALMONELLA TYPHIMURIUM, Strain/Indicator: TA98, Metabolic Activation: NONE, Method: PREINCUBATION
The mark [3] stands for this setting: Test System: AMES SALMONELLA TYPHIMURIUM, Strain/Indicator: TA100, Metabolic Activation: NONE, Method: PREINCUBATION
[4] abbreviates: Test System: AMES SALMONELLA TYPHIMURIUM, Strain/Indicator: TA1535, Metabolic Activation: NONE, Method: PREINCUBATION

Active and inactive are the calls of the source. How the calls were made is not given here.

Regarding `O=C1c2ccccc2C(=O)C1(O)O`, the mutagenic call (Test System: AMES SALMONELLA TYPHIMURIUM, Strain/Indicator: TA97, Metabolic Activation: HAMSTER, LIVER, S-9, AROCLOR 1254 (10%), Method: PREINCUBATION) is “inactive; negative”; the mutagenic call (Test System: AMES SALMONELLA TYPHIMURIUM, Strain/Indicator: TA97, Metabolic Activation: HAMSTER, LIVER, S-9, AROCLOR 1254 (30%), Method: PREINCUBATION) was “inactive; negative”; the mutagenic call under setting [1] was “inactive; negative”; the mutagenic call (Test System: AMES SALMONELLA TYPHIMURIUM, Strain/Indicator: TA97, Metabolic Activation: RAT, LIVER, S-9, AROCLOR 1254 (10%), Method: PREINCUBATION) was “inactive; negative”; the mutagenic call (Test System: AMES SALMONELLA TYPHIMURIUM, Strain/Indicator: TA97, Metabolic Activation: RAT, LIVER, S-9, AROCLOR 1254 (30%), Method: PREINCUBATION) is “inactive; negative”; the mutagenic call (Test System: AMES SALMONELLA TYPHIMURIUM, Strain/Indicator: TA98, Metabolic Activation: HAMSTER, LIVER, S-9, AROCLOR 1254 (10%), Method: PREINCUBATION) is “inactive; negative”. In addition, the mutagenic call (Test System: AMES SALMONELLA TYPHIMURIUM, Strain/Indicator: TA98, Metabolic Activation: HAMSTER, LIVER, S-9, AROCLOR 1254 (30%), Method: PREINCUBATION) is “inactive; negative”; the mutagenic call under setting [2] is “inactive; negative”; the mutagenic call (Test System: AMES SALMONELLA TYPHIMURIUM, Strain/Indicator: TA98, Metabolic Activation: RAT, LIVER, S-9, AROCLOR 1254 (10%), Method: PREINCUBATION) is “inactive; negative”; the mutagenic call (Test System: AMES SALMONELLA TYPHIMURIUM, Strain/Indicator: TA98, Metabolic Activation: RAT, LIVER, S-9, AROCLOR 1254 (30%), Method: PREINCUBATION) was “inactive; negative”; the mutagenic call (Test System: AMES SALMONELLA TYPHIMURIUM, Strain/Indicator: TA100, Metabolic Activation: HAMSTER, LIVER, S-9, AROCLOR 1254 (10%), Method: PREINCUBATION) was “inactive; negative”; the mutagenic call (Test System: AMES SALMONELLA TYPHIMURIUM, Strain/Indicator: TA100, Metabolic Activation: HAMSTER, LIVER, S-9, AROCLOR 1254 (30%), Method: PREINCUBATION) was “inactive; negative”. Further, the mutagenic call under setting [3] was “inactive; negative”; the mutagenic call (Test System: AMES SALMONELLA TYPHIMURIUM, Strain/Indicator: TA100, Metabolic Activation: RAT, LIVER, S-9, AROCLOR 1254 (5%), Method: PREINCUBATION) is “inactive; negative”; the mutagenic call (Test System: AMES SALMONELLA TYPHIMURIUM, Strain/Indicator: TA100, Metabolic Activation: RAT, LIVER, S-9, AROCLOR 1254 (10%), Method: PREINCUBATION) is “inactive; negative”; the mutagenic call (Test System: AMES SALMONELLA TYPHIMURIUM, Strain/Indicator: TA100, Metabolic Activation: RAT, LIVER, S-9, AROCLOR 1254 (30%), Method: PREINCUBATION) was “inactive; negative”; the mutagenic call (Test System: AMES SALMONELLA TYPHIMURIUM, Strain/Indicator: TA1535, Metabolic Activation: HAMSTER, LIVER, S-9, AROCLOR 1254 (10%), Method: PREINCUBATION) is “inactive; negative”; the mutagenic call (Test System: AMES SALMONELLA TYPHIMURIUM, Strain/Indicator: TA1535, Metabolic Activation: HAMSTER, LIVER, S-9, AROCLOR 1254 (30%), Method: PREINCUBATION) is “inactive; negative”. The mutagenic call is, setting by setting: under setting [4], “inactive; negative”; (Test System: AMES SALMONELLA TYPHIMURIUM, Strain/Indicator: TA1535, Metabolic Activation: RAT, LIVER, S-9, AROCLOR 1254 (10%), Method: PREINCUBATION) “inactive; negative”; (Test System: AMES SALMONELLA TYPHIMURIUM, Strain/Indicator: TA1535, Metabolic Activation: RAT, LIVER, S-9, AROCLOR 1254 (30%), Method: PREINCUBATION) “inactive; negative”; (Test System: AMES SALMONELLA TYPHIMURIUM, Strain/Indicator: TA1537, Metabolic Activation: HAMSTER, LIVER, S-9, AROCLOR 1254 (10%), Method: PREINCUBATION) “inactive; negative”; (Test System: AMES SALMONELLA TYPHIMURIUM, Strain/Indicator: TA1537, Metabolic Activation: HAMSTER, LIVER, S-9, AROCLOR 1254 (30%), Method: PREINCUBATION) “inactive; negative”; (Test System: AMES SALMONELLA TYPHIMURIUM, Strain/Indicator: TA1537, Metabolic Activation: RAT, LIVER, S-9, AROCLOR 1254 (10%), Method: PREINCUBATION) “inactive; negative”. The mutagenic call (Test System: AMES SALMONELLA TYPHIMURIUM, Strain/Indicator: TA1537, Metabolic Activation: RAT, LIVER, S-9, AROCLOR 1254 (30%), Method: PREINCUBATION) was “inactive; negative”.
For `O=[N+]([O-])c1cccc2c(Cl)nsc12`, the mutagenic call (Test System: AMES SALMONELLA TYPHIMURIUM, Strain/Indicator: TA100, Metabolic Activation: NONE, Method: STANDARD PLATE) was “active; positive”.
For `COC(F)(F)C(Cl)Cl`, the mutagenic call was “inactive; negative” (Test System: AMES SALMONELLA TYPHIMURIUM, Strain/Indicator: TA97, Metabolic Activation: HAMSTER, LIVER, S-9, AROCLOR 1254 (10 OR 30%), Method: PREINCUBATION); “inactive; negative” under setting [1]; “inactive; negative” (Test System: AMES SALMONELLA TYPHIMURIUM, Strain/Indicator: TA97, Metabolic Activation: RAT, LIVER, S-9, AROCLOR 1254 (10 OR 30%), Method: PREINCUBATION); “inactive; negative” (Test System: AMES SALMONELLA TYPHIMURIUM, Strain/Indicator: TA98, Metabolic Activation: HAMSTER, LIVER, S-9, AROCLOR 1254 (10 OR 30%), Method: PREINCUBATION); “inactive; negative” (Test System: AMES SALMONELLA TYPHIMURIUM, Strain/Indicator: TA98, Metabolic Activation: HAMSTER, LIVER, S-9, AROCLOR 1254 (30%), Method: DESICCATOR); “inactive; negative” (Test System: AMES SALMONELLA TYPHIMURIUM, Strain/Indicator: TA98, Metabolic Activation: NONE, Method: DESICCATOR). In addition, the mutagenic call was “inactive; negative” under setting [2]; “inactive; negative” (Test System: AMES SALMONELLA TYPHIMURIUM, Strain/Indicator: TA98, Metabolic Activation: RAT, LIVER, S-9, AROCLOR 1254 (10 OR 30%), Method: PREINCUBATION); “inactive; negative” (Test System: AMES SALMONELLA TYPHIMURIUM, Strain/Indicator: TA98, Metabolic Activation: RAT, LIVER, S-9, AROCLOR 1254 (30%), Method: DESICCATOR); “inactive; negative” (Test System: AMES SALMONELLA TYPHIMURIUM, Strain/Indicator: TA100, Metabolic Activation: HAMSTER, LIVER, S-9, AROCLOR 1254 (10 OR 30%), Method: PREINCUBATION); “inactive; negative” (Test System: AMES SALMONELLA TYPHIMURIUM, Strain/Indicator: TA100, Metabolic Activation: HAMSTER, LIVER, S-9, AROCLOR 1254 (30%), Method: DESICCATOR); “inactive; negative” (Test System: AMES SALMONELLA TYPHIMURIUM, Strain/Indicator: TA100, Metabolic Activation: NONE, Method: DESICCATOR). For the same molecule, the mutagenic call was “inactive; negative” under setting [3]; “inactive; negative” (Test System: AMES SALMONELLA TYPHIMURIUM, Strain/Indicator: TA100, Metabolic Activation: RAT, LIVER, S-9, AROCLOR 1254 (10 OR 30%), Method: PREINCUBATION); “inactive; negative” (Test System: AMES SALMONELLA TYPHIMURIUM, Strain/Indicator: TA100, Metabolic Activation: RAT, LIVER, S-9, AROCLOR 1254 (30%), Method: DESICCATOR); “inactive; negative” (Test System: AMES SALMONELLA TYPHIMURIUM, Strain/Indicator: TA1535, Metabolic Activation: HAMSTER, LIVER, S-9, AROCLOR 1254 (10 OR 30%), Method: PREINCUBATION); “inactive; negative” under setting [4]; “inactive; negative” (Test System: AMES SALMONELLA TYPHIMURIUM, Strain/Indicator: TA1535, Metabolic Activation: RAT, LIVER, S-9, AROCLOR 1254 (10 OR 30%), Method: PREINCUBATION).
`O=C(O[C@@H]1Cc2c(O)cc(O)cc2O[C@@H]1c1cc(O)c(O)c(O)c1)c1cc(O)c(O)c(O)c1`: the mutagenic call runs as follows: (Test System: Ames Salmonella typhimurium, Strain/Indicator: TA102, Metabolic Activation: None, Method: Preincubation) “inactive; negative”; (Test System: Ames Salmonella typhimurium, Strain/Indicator: TA102, Metabolic Activation: Rat, Liver, S-9, Aroclor 1254 in 0.154 M KCl, Method: Preincubation) “inactive; negative”.
